Our source for the Activity values is ChEMBL document CHEMBL1139428, “Cocrystal structures of primed side-extending alpha-ketoamide inhibitors reveal novel calpain-inhibitor aromatic interactions” (J Med Chem, 2008).

The source made the active and inactive calls. The rule behind the calls is not given here.

Test [1] deals with T1, Calpain-1 catalytic subunit (Homo sapiens) (UniProt P07384).
T1 sequence (whole entry): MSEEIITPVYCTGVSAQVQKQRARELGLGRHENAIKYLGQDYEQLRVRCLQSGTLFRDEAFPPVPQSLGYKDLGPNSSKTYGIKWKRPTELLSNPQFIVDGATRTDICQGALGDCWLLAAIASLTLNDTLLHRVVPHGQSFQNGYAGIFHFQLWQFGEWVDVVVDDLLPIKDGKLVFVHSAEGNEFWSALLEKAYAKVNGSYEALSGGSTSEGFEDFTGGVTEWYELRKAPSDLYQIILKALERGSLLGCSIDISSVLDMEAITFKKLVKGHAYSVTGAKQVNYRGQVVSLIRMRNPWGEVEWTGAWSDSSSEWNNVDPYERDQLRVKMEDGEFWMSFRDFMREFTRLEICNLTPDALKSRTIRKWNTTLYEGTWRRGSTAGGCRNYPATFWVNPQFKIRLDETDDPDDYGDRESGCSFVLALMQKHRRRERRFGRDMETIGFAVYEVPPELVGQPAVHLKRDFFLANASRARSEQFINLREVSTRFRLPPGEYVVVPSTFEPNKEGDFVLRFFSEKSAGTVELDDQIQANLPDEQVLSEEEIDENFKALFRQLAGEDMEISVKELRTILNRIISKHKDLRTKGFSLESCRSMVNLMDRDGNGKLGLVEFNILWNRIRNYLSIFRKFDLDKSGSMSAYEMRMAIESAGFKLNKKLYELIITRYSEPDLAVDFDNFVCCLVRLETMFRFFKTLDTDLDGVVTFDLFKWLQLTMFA
Nature of the test: Inhibition of calpain 1 protease core assessed as attenuation of substrate cleavage at 50 uM by FRET.

The target of test [2] is T2, Calpain-2 catalytic subunit (Homo sapiens) (UniProt P17655).
T2 sequence (whole entry): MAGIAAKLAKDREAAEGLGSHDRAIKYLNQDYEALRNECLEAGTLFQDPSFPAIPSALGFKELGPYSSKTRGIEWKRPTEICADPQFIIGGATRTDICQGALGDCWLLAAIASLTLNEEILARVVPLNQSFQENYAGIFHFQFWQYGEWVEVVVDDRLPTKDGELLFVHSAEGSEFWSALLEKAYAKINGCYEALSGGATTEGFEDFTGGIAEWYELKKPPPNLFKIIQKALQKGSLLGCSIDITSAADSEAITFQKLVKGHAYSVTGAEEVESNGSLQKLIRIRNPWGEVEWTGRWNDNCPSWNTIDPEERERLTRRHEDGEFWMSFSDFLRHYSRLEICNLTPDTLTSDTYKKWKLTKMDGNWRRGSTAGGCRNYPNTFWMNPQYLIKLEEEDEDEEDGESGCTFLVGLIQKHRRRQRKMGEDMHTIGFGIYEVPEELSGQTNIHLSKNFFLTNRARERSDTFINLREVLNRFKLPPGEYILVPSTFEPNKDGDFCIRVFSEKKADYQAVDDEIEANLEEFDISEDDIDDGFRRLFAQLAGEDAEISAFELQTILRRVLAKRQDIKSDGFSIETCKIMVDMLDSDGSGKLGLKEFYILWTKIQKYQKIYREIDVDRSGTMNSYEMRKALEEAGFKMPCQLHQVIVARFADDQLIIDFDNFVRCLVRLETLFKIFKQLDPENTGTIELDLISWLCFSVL
Nature of the test: Inhibition of m-calpain assessed as attenuation of substrate cleavage at 1 uM by FRET.

In the case of `CC[C@H](NC(=O)[C@H](CC(C)C)NC(=O)OCc1ccccc1)C(=O)C(=O)NCCCN1CCN(C)CC1`, the outcome in test [1] and in test [2] was Active.
Consider `CC[C@H](NC(=O)[C@H](CC(C)C)NC(=O)OCc1ccccc1)C(=O)C(=O)NCCCn1cnc2c(N)ncnc21`, for which the outcome in test [1] and in test [2] was Active.
